Experimental data published in paper PMC9241959 (Chemical Science, 2022).

Biological target: Phaseolus vulgaris erythroagglutinin (PHA-E) (Phaseolus vulgaris, UniProt P05088)
Experiment: glycan microarray, fluorescence
Assay type: binding
Conditions: labelled compound: immobilised AEAB conjugate at reducing end

Chain of Phaseolus vulgaris erythroagglutinin (PHA-E) (P05088 22-275 limits assumed): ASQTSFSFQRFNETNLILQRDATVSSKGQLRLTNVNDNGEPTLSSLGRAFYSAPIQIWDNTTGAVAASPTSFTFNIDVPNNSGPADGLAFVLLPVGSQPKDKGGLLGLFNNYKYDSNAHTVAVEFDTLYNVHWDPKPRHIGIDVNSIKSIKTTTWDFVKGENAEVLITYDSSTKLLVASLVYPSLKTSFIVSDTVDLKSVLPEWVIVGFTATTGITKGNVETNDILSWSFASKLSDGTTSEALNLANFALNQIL

CC(=O)N[C@H]1[C@H](O[C@H]2[C@H](O)[C@@H](NC(C)=O)C(O)O[C@@H]2CO)O[C@H](CO)[C@@H](O[C@@H]2O[C@H](CO[C@H]3O[C@H](CO)[C@@H](O)[C@H](O)[C@@H]3O[C@@H]3O[C@H](CO)[C@@H](O)[C@H](O)[C@H]3NC(C)=O)[C@@H](O[C@@H]3O[C@H](CO)[C@@H](O)[C@H](O)[C@H]3NC(C)=O)[C@H](O[C@H]3O[C@H](CO)[C@@H](O)[C@H](O)[C@@H]3O[C@@H]3O[C@H](CO)[C@@H](O)[C@H](O)[C@H]3NC(C)=O)[C@@H]2O)[C@@H]1O (stereo partly shown) [compound 1, agalacto bisected N-glycan 1]
RFU at 1 ug/mL lectin: 9197 RFU
